In patent publication US12312359B2 (Vitae Pharmaceuticals, LLC, priority 2016, dated 2025):

Key:
[1] = system: human acute monocytic leukemia cell line MV-4-11; assay: Assay 2: cell proliferation assay (ATP quantitation, CellTiter-Glo), MV-4-11; assay type: cell-based; details: MV-4-11 cells
How it was run: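 MV-4-11 cells, 1.67×10^4 per well in medium with 10% FBS, were exposed to compound for 72 h at 37° C., 5% CO2; HL-60 cells served as toxicity control. Proliferation read as ATP content by CellTiter-Glo luminescence.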

[2] = target: T1, biotinylated wild-type menin and MLL-AF9 fusion protein (menin/MLL binding) (Homo sapiens, UniProt O00255); assay: Assay 1: menin/MLL binding AlphaLISA assay, wild-type menin; details: Table 30; column head does not say wild-type or mutated menin
T1 construct: made in house; host or cells: menin: E. coli; MLL-AF9-FLAG: HEK293 cells, used as cleared lysate
T1 sequence (O00255 1-610): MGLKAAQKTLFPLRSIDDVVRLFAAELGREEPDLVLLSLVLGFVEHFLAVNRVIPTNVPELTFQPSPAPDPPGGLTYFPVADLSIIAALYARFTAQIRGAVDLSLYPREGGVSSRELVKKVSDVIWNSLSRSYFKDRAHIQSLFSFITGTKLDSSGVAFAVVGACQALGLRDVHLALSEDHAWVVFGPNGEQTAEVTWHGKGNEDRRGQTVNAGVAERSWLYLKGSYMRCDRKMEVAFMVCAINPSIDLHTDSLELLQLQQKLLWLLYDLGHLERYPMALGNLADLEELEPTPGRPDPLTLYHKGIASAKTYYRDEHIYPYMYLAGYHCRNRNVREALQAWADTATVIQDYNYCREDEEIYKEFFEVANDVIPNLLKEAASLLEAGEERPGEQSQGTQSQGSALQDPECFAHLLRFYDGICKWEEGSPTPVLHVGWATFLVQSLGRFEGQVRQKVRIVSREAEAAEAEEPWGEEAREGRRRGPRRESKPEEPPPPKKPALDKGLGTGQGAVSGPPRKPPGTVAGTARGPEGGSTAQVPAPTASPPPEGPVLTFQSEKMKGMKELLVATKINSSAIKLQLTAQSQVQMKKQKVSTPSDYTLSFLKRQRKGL
How it was run: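 Compound was preincubated 30 min at room temperature with biotinylated menin (5 nM) and MLL-AF9-FLAG lysate from HEK293 cells, pH 7.4 buffer with 5% DMSO and DTT. Bead-based Alpha signal after 60 min with streptavidin donor and anti-FLAG acceptor beads; four-parameter logistic fit gave IC50.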

Row | Compound | EC50 ([1]; Homo sapiens, MV4-11, 72 h) [nM] | IC50 [2] [nM] | EC50 ([1]; 72 h) [nM]
1 | CC(C)N(C(=O)c1cc(F)ccc1Oc1cncnc1N1CC2(CCN(C[C@H]3CC[C@H](NS(C)(=O)=O)CC3)CC2)C1)C(C)C [Example 6A, 5-fluoro-N,N-diisopropyl-2-((4-(7-(((1r,4r)-4-(methylsulfonamido)cyclohexyl)methyl)-2,7-diazaspiro[3.5]nonan-2-yl)pyrimidin-5-yl)oxy)benzamide] | < 100 | < 100 | –
2 | CN(C(=O)c1cc(F)ccc1Oc1cncnc1N1CCC2(CCN(Cc3ccc4[nH]c(=O)[nH]c4c3)C2)C1)C(C)(C)C (centres unmarked) [Example 175, N-(tert-butyl)-5-fluoro-N-methyl-2-((4-(7-((2-oxo-2,3-dihydro-1H-benzo[d]imidazol-5-yl)methyl)-2,7-diazaspiro[4.4]nonan-2-yl)pyrimidin-5-yl)oxy)benzamide] | ≥ 1000 | < 100 | –
3 | CC(C)N(C)C(=O)c1cc(F)ccc1Oc1cncnc1N1CC2(CN(CC3CCCCC3)C2)C1 [Example 167, 2-((4-(6-(cyclohexylmethyl)-2,6-diazaspiro[3.3]heptan-2-yl)pyrimidin-5-yl)oxy)-5-fluoro-N-isopropyl-N-methylbenzamide] | 100 to 1000 | < 100 | –
4 | N#Cc1ccc(-c2cc(F)ccc2Oc2cncnc2N2CCC3(CCN(Cc4ccc5nn[nH]c5c4)C3)C2)c(C2CC2)c1 (centres unmarked) [Example 171, 2′-((4-(7-((1H-benzo[d][1,2,3]triazol-6-yl)methyl)-2,7-diazaspiro[4.4]nonan-2-yl)pyrimidin-5-yl)oxy)-2-cyclopropyl-5′-fluoro-[1,1′-biphenyl]-4-carbonitrile] | < 100 | < 100 | –
5 | CC(=O)N[C@H]1CC[C@H](CN2CCC3(CCN(c4ncncc4Oc4ccc(F)cc4-c4ccc(C#N)cc4C4CC4)C3)C2)CC1 (some centres unmarked) [Example 188, N-((1r,4r)-4-((7-(5-((4′-cyano-2′-cyclopropyl-5-fluoro-[1,1′-biphenyl]-2-yl)oxy)pyrimidin-4-yl)-2,7-diazaspiro[4.4]nonan-2-yl)methyl)cyclohexyl) acetamide] | 100 to 1000 | < 100 | –
6 | NC(=O)c1ccc(-c2cc(F)ccc2Oc2cncnc2N2CCC3(CCN(Cc4ccc5[nH]c(=O)[nH]c5c4)C3)C2)c(C2CC2)c1 (centres unmarked) [Example 43, 2-cyclopropyl-5′-fluoro-2′-((4-(7-((2-oxo-2,3-dihydro-1H-benzo[d]imidazol-5-yl)methyl)-2,7-diazaspiro[4.4]nonan-2-yl)pyrimidin-5-yl)oxy)-[1,1′-biphenyl]-4-carboxamide] | < 100 | < 100 | –
7 | CC(C)N(C(=O)c1cc(F)ccc1Oc1cncnc1N1CC2(CCN(C(=O)CCc3ccc(F)cc3)C2)C1)C(C)C [Example 12, 5-fluoro-2-((4-(6-(3-(4-fluorophenyl)propanoyl)-2,6-diazaspiro[3.4]octan-2-yl)pyrimidin-5-yl)oxy)-N,N-diisopropylbenzamide] | 100 to 1000 | < 100 | –
8 | CC(C)c1ncncc1-c1cc(F)ccc1Oc1cncnc1N1CCC2(CN(C(=O)Cc3ccc(C#N)cc3)C2)C1 [Example 130, 4-(2-(6-(5-(4-fluoro-2-(4-isopropylpyrimidin-5-yl)phenoxy)pyrimidin-4-yl)-2,6-diazaspiro[3.4]octan-2-yl)-2-oxoethyl)benzonitrile] | 100 to 1000 | < 100 | –
9 | CC(C)N(C(=O)c1cc(F)ccc1Oc1cncnc1N1CC2(CN(CC[C@H]3CC[C@H](NC(=O)CC(C)(C)C)CC3)C2)C1)C(C)C [Example 87, 2-((4-(6-(2-((1r,4r)-4-(3,3-dimethyl-butanamido)cyclo-hexyl)ethyl)-2,6-diazaspiro[3.3]heptan-2-yl)pyrimidin-5-yl)oxy)-5-fluoro-N,N-diisopropyl-benzamide] | 100 to 1000 | < 100 | –
10 | CC(C)Cc1cc(F)ccc1Oc1cncnc1N1CCC2(CCN(Cc3ccc4[nH]c(=O)[nH]c4c3)C2)C1 (centres unmarked) [Example 236, 5-((7-(5-(4-fluoro-2-isobutylphenoxy)pyrimidin-4-yl)-2,7-diazaspiro[4.4]nonan-2-yl)methyl)-1,3-dihydro-2H-benzo[d]imidazol-2-one] | 100 to 1000 | < 100 | –
11 | CC(C)c1ncncc1-c1cc(F)ccc1Oc1cncnc1N1CC2(CCC(NC(C)(C)C)C2)C1 (centres unmarked) [Example 96, N-(tert-butyl)-2-(5-(4-fluoro-2-(4-isopropylpyrimidin-5-yl)phenoxy)pyrimidin-4-yl)-2-azaspiro[3.4]octan-6-amine] | 100 to 1000 | < 100 | –
12 | Cc1cc(C#N)ccc1-c1cc(F)ccc1Oc1cncnc1N1CCC2(CCN(Cc3ccc4[nH]c(=O)[nH]c4c3)C2)C1 (centres unmarked) [Example 48, 5′-fluoro-2-methyl-2′-((4-(7-((2-oxo-2,3-dihydro-1H-benzo[d]imidazol-5-yl)methyl)-2,7-diazaspiro[4.4]nonan-2-yl)pyrimidin-5-yl)oxy)-[1,1′-biphenyl]-4-carbonitrile] | – | < 100 | 100 to 1000
13 | CC(C)C(O)c1cc(F)ccc1Oc1cncnc1N1CCC2(CCN(Cc3ccc4c(c3)NC(=O)C4(C)C)C2)C1 (centres unmarked) [Example 10, 6-((7-(5-(4-fluoro-2-(1-hydroxy-2-methylpropyl)phenoxy)pyrimidin-4-yl)-2,7-diazaspiro[4.4]nonan-2-yl)methyl)-3,3-dimethylindolin-2-one] | ≥ 1000 | < 100 | –
14 | CC(C)c1ncncc1-c1cc(F)ccc1Oc1cncnc1N1CC2(CN(CC3CCC(O)CC3)C2)C1 (centres unmarked) [Example 65, 4-((6-(5-(4-fluoro-2-(4-isopropylpyrimidin-5-yl)phenoxy)pyrimidin-4-yl)-2,6-diazaspiro[3.3]heptan-2-yl)methyl)cyclohexanol] | 100 to 1000 | < 100 | –
15 | CC(C)c1ncncc1-c1cc(F)ccc1Oc1cncnc1N1CCC2(CCN(Cc3ccc4[nH]c(=O)[nH]c4c3)C2)C1 (single isomer, unassigned) [Example 160B, 5-((7-(5-(4-fluoro-2-(4-isopropylpyrimidin-5-yl)phenoxy)pyrimidin-4-yl)-2,7-diazaspiro[4.4]nonan-2-yl)methyl)-1,3-dihydro-2H-benzo[d]imidazol-2-one] | – | < 100 | < 100
16 | CCN(C(=O)C(C)C)c1cc(F)ccc1Oc1cncnc1N1CC2(CN(CC3CCOCC3)C2)C1 [Example 121, N-ethyl-N-(5-fluoro-2-((4-(6-((tetrahydro-2H-pyran-4-yl)methyl)-2,6-diazaspiro[3.3]heptan-2-yl)pyrimidin-5-yl)oxy)phenyl)isobutyramide] | 100 to 1000 | < 100 | –
17 | CC(C)n1nccc1-c1cc(F)ccc1Oc1cncnc1N1CCC2(CCN(C(=O)C(N)C3CCCCC3)C2)C1 (single isomer, unassigned) [Example 206A, 2-amino-2-cyclohexyl-1-(7-(5-(4-fluoro-2-(1-isopropyl-1H-pyrazol-5-yl)phenoxy)pyrimidin-4-yl)-2,7-diazaspiro[4.4]nonan-2-yl)ethanone] | 100 to 1000 | < 100 | –
18 | N#Cc1ccc(-c2cc(F)ccc2Oc2cncnc2N2CCC3(CCN(Cc4ccc5oc(=O)[nH]c5c4)C3)C2)c(C2CC2)c1 (centres unmarked) [Example 169, 2-cyclopropyl-5′-fluoro-2′-((4-(7-((2-oxo-2,3-dihydrobenzo[d]oxazol-5-yl)methyl)-2,7-diazaspiro[4.4]nonan-2-yl)pyrimidin-5-yl)oxy)-[1,1′-biphenyl]-4-carbonitrile] | < 100 | < 100 | –
19 | CC(F)(F)c1ccccc1-c1cc(F)ccc1Oc1cncnc1N1CCC2(CCN(Cc3ccc4[nH]c(=O)[nH]c4c3)C2)C1 (centres unmarked) [Example 213, 5-((7-(5-((2′-(1,1-difluoroethyl)-5-fluoro-[1,1′-biphenyl]-2-yl)oxy)pyrimidin-4-yl)-2,7-diazaspiro[4.4]nonan-2-yl)methyl)-1,3-dihydro-2H-benzo[d]imidazol-2-one] | < 100 | < 100 | –
20 | CC(C)C(=O)N(CCO)c1cc(F)ccc1Oc1cncnc1N1CCC2(CCN(Cc3ccc4[nH]c(=O)[nH]c4c3)C2)C1 (centres unmarked) [Example 185, N-(5-fluoro-2-((4-(7-((2-oxo-2,3-dihydro-1H-benzo[d]imidazol-5-yl)methyl)-2,7-diazaspiro[4.4]nonan-2-yl)pyrimidin-5-yl)oxy)phenyl)-N-(2-hydroxyethyl)iso-butyramide] | 100 to 1000 | < 100 | –
21 | N#Cc1ccc(CCN2CC3(C2)CN(c2ncncc2Oc2ccc(F)cc2-c2ccc(C#N)cc2C2CC2)C3)cc1 [Example 203, 2′-((4-(6-(4-cyanophenethyl)-2,6-diazaspiro[3.3]heptan-2-yl)pyrimidin-5-yl)oxy)-2-cyclopropyl-5′-fluoro-[1,1′-biphenyl]-4-carbonitrile] | ≥ 1000 | < 100 | –
22 | 5-((7-(5-(4-fluoro-2-(3-fluoro-3-methylbutyl)phenoxy) pyrimidin-4-yl)-2,7-diazaspiro[4.4]nonan-2-yl)methyl)-1H-benzo[d]imidazol-2(3H)-one [Example 35] | – | < 100 | 100 to 1000
